Assay results reported in PMC10179503, “Using Machine Learning and Molecular Docking to Leverage Urease Inhibition Data for Virtual Screening” (International Journal of Molecular Sciences, 2023).

How the values were obtained:
jack bean urease [1] = molecular target: T1, jack bean urease (Canavalia ensiformis, UniProt P07374); experiment: indophenol (Weatherburn) ammonia release, […] nm; format: biochemical; details: urea (20 mM stock, 45 μL), PBS, 30 °C, 10 min
T1 construct: nickel metalloenzyme; full length 840 residues, native oligomer a hexamer (known biology)
T1 sequence (P07374 whole entry): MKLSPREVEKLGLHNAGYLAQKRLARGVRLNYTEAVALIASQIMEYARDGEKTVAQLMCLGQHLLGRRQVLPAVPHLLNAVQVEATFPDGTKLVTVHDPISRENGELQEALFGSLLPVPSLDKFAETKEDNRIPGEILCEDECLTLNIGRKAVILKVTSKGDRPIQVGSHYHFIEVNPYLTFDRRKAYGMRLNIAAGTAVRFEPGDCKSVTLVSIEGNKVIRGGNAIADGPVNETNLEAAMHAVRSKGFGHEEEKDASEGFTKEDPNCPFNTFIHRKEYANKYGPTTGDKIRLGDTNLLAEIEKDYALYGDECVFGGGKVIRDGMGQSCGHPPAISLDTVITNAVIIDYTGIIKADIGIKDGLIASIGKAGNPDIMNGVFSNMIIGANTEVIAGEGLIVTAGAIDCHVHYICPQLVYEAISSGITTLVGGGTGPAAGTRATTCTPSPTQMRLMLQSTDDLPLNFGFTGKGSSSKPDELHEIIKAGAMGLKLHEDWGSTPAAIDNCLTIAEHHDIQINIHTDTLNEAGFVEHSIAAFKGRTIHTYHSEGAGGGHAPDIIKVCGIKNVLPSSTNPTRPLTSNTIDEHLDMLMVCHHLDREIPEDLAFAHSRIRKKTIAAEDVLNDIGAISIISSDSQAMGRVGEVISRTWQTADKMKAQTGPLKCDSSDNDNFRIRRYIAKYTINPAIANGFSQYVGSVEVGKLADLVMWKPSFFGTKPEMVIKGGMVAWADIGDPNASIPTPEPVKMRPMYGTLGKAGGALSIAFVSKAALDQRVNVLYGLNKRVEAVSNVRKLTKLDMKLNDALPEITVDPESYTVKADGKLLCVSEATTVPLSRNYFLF

jack bean urease [2] = molecular target: T1, jack bean urease; experiment: indophenol (Weatherburn) ammonia release, […] nm; format: biochemical; details: read-out: % at 1 mM or IC50 ± SEM

| SMILES | % at 1 mM or IC50 ± SEM (μM) (jack bean urease [1]) | IC50 (jack bean urease [2]) |
| --- | --- | --- |
| O=C(ON[S+]([O-])c1ccccc1)c1ccccc1 (stereo not drawn) [compound 4, 4] | 0% | – |
| [O-][S+](NOCc1ccccc1)c1ccccc1 (stereo not drawn) [compound 3, 3] | – | 6.15 ± 0.99 µM |
| NOC(=O)c1ccccc1 [compound 5, 5] | – | 155 ± 2.02 µM |
| NC(N)=S [Thiourea, reference compound] | – | 144 ± 5.08 µM |
| Cc1ccc(S(=O)(=O)NOCc2ccccc2)cc1 [compound 1, 1] | 43.85% | – |
| O=S(=O)(NOCc1ccccc1)c1ccccc1 [compound 2, 2] | – | 100 ± 10.2 µM |
